The results in this text go back to ChEMBL document CHEMBL1629424, “Does conjugation of antioxidants improve their antioxidative/anti-inflammatory potential?” (Bioorg Med Chem, 2010).

Test [1] is described as follows: Cytotoxicity against RAMEC assessed as cell viability after 24 hrs by MTT assay. The settings on record: Rattus norvegicus. In general terms: Tetrazolium assays rely on reduction of a dye to a coloured formazan, in cell work by metabolically active cells.
For test [2], the system named is Glycine max. The experiment in a line: Inhibition of soybean lipoxygenase at 0.05 mM.
Test [3] concerns Glycine max. The test can be described thus: Inhibition of soybean lipoxygenase at 0.1 mM.
The nature of test [4]: Antioxidant activity against AAPH-induced lipid peroxidation assessed as inhibition of conjugated diene hydroperoxide production at 0.1 mM by UV spectrophotometry. Type of test: functional.
Test [5] can be described thus: Antioxidant activity of the compound assessed as reducing activity of DPPH at 0.1 mM after 60 mins. Type of test: functional. Details: scale not given: the % may be the effect or the level left. For orientation: The DPPH test is a chemical assay of radical scavenging.
A further test concerns Rattus norvegicus. The test can be described thus: Antiinflammatory activity in Fisher rat assessed as inhibition of carrageenan-induced paw oedema at 0.01 mmol/kg, po measured after 3.5 hrs. Type of test: functional.
Test [6] in a line: Antioxidant activity of the compound assessed as reducing activity of DPPH at 0.1 mM after 20 mins. The test is classed as functional. The arrangement: scale not given: the % may be the effect or the level left.
Test [7] in a line: Inhibition of soybean lipoxygenase. Details: species or system Glycine max.

Activity calls are given as the source filed them. The calls are words filed in the database; no cut-off is given here.

By IC50 is commonly meant the concentration that gives 50% inhibition. The term inhibition denotes the drop in the measured response relative to a control, in per cent. As usually defined, the inhibition in vivo is how much of the control response was suppressed.

Turning to `COc1cc(C)c(/C=C/C(C)=C/C=C/C(C)=C/C(=O)NCCCNCCCCNCCCNC(=O)/C=C(C)/C=C/C=C(C)/C=C/c2c(C)cc(OC)c(C)c2C)c(C)c1C`, the IC50 in test [1] stood at 4.7 µM. Besides, in the test on Glycine max [2], the inhibition result is “inactive”. In addition, the inhibition is 75% in the test with Glycine max [3] and 97% in test [4]. Moreover, the Activity in test [5] came out at 38%; in test [6], 26%. Moreover, in the test on Rattus norvegicus, the inhibition in vivo at 10 µmol/kg worked out at 19%.
Turning to `COc1ccc(/C=C/C(=O)NCCCNCCCCNCCCNC(=O)/C=C/c2ccc(OC)c(OC)c2)cc1OC`, the IC50 was determined as 11.3 µM in test [1] and 62 µM in test [7]. Also, the inhibition in test [4] worked out at 100%. In addition, the Activity in test [5] worked out at 58%; in test [6], 52%. Besides, the inhibition in vivo at 10 µmol/kg in the test with Rattus norvegicus was determined as 42%.
Consider `NCCCNCCCCNCCCN`, for which the inhibition result (in the test on Glycine max [2]; in the test with Glycine max [3]; in test [4]) was “inactive” throughout. Further, the Activity in test [5] and in test [6] was 4% throughout.
With `O=C(CCc1ccc(O)c(O)c1)NCCCNCCCCNCCCNC(=O)CCc1ccc(O)c(O)c1` [KUKOAMINE A], the results for the IC50 in test [1] and in test [7] were 3.5 µM and 9.5 µM, respectively. In addition, in test [4], the inhibition amounted to 72%. The Activity in test [5] stood at 100%; in test [6], 96%. Moreover, the inhibition in vivo at 10 µmol/kg in the test with Rattus norvegicus came to 43%.
Turning to `N[C@@H](Cc1ccc(O)c(O)c1)C(=O)NCCCNCCCCNCCCNC(=O)[C@@H](N)Cc1ccc(O)c(O)c1`, in the test with Glycine max [2], the inhibition entry is “inactive”. The inhibition in the test on Glycine max [3] is 32%; in test [4], 71%. For the same molecule, the Activity in test [5] was found to be 96%; in test [6], 89%.
Take `O=C1O[C@H]([C@@H](O)CO)C(O)=C1O`: the Activity in test [5] was 100%; in test [6] it was 99%.
As to `Cc1c(C)c2c(c(C)c1O)CCC(C)(C(=O)O)O2` (centres undefined), the inhibition in test [4] came to 63%.
As for `CC1=C(/C=C/C(C)=C/C=C/C(C)=C/C(=O)O)C(C)(C)CCC1` [TRETINOIN], the IC50 in test [1] was 18.3 µM. For the same molecule, the inhibition entry in the test on Glycine max [2] and in the test with Glycine max [3] was “inactive” throughout. Further, the inhibition in test [4] amounted to 75%. Further, the Activity was 23% in test [5] and 11% in test [6]. Besides, the inhibition in vivo at 10 µmol/kg in the test with Rattus norvegicus came to 11%.
In the case of `CC(Cc1ccc(O)c(O)c1)C(C)Cc1ccc(O)c(O)c1` (centres undefined), the Activity in test [5] amounted to 83%.
As for `Cc1oc2c(C)c3oc(=O)cc(C)c3cc2c1/C=C/C(=O)OC(C)(C)C`, the IC50 in test [1] is 2.9 µM; in test [7], 9.4 µM. Also, in test [4], the inhibition came out at 80%. The Activity in test [5] and in test [6] was 11% in each case. In the test on Rattus norvegicus, the inhibition in vivo at 10 µmol/kg turned out to be 46%.
Turning to `N[C@@H](Cc1ccc(O)c(O)c1)C(=O)NCCc1ccc(O)c(O)c1`, the inhibition result in test [4] was “inactive”. Further, in test [7], the IC50 was 81.5 µM. The Activity in test [5] and in test [6] was 92% in each case.
For the molecule `CC1=C(/C=C/C(C)=C/C=C/C(C)=C/C(=O)NCCCNCCCCNCCCNC(=O)/C=C/c2c(C)oc3c(C)c4oc(=O)cc(C)c4cc23)C(C)(C)CCC1`, the inhibition result in the test on Glycine max [2] was “inactive”. Further, the values for the inhibition (with Glycine max [3]; in test [4]) were 43% and 45%, respectively. Further, the Activity in test [5] came out at 38%; in test [6], 11%.
Taken in the same sequence, the figures for `O=C(O)CCc1ccc(O)c(O)c1` were “inactive”, 16%, 47%, 100% and 100%.
As for `CC1=C(/C=C/C(C)=C/C=C/C(C)=C/C(=O)NCCCCCCCCCCCCNC(=O)/C=C(C)/C=C/C=C(C)/C=C/C2=C(C)CCCC2(C)C)C(C)(C)CCC1`, in test [1], the IC50 was 2.8 µM. The inhibition entry in the test on Glycine max [2] is “inactive”. In addition, the inhibition in the test on Glycine max [3] came to 23%; in test [4] it was 41%. In addition, the Activity in test [5] was found to be 13.4%. In addition, the result in test [6] was inactive.
`Cc1oc2c(C)c3oc(=O)cc(C)c3cc2c1/C=C/C(=O)O`: the inhibition entry in the test on Glycine max [2] was “inactive”. For the same molecule, the values for the inhibition (in the test with Glycine max [3]; in test [4]) were 9% and 73%, respectively. Besides, the Activity in test [5] and in test [6] was 11% in each case.
Take `COc1cc(C)c(/C=C/C(C)=C/C=C/C(C)=C/C(=O)NCCc2ccc(O)c(O)c2)c(C)c1C`: the inhibition in test [4] is 10%. In test [7], this molecule displayed an IC50 of 87 µM. For the same molecule, the Activity in test [5] and in test [6] was 79% each time. The inhibition in vivo at 10 µmol/kg in the test with Rattus norvegicus worked out at 13.7%.
In the case of `COc1ccc2c(c1)c(CC(=O)O)c(C)n2C(=O)c1ccc(Cl)cc1` [INDOMETHACIN], the inhibition in vivo at 10 µmol/kg in the test on Rattus norvegicus worked out at 47%.
Consider `CCCCNC(=O)/C=C/c1c(C)oc2c(C)c3oc(=O)cc(C)c3cc12`, for which the inhibition entry with Glycine max [2] was “inactive”. Also, the inhibition was determined as 24% with Glycine max [3] and 66% in test [4]. Also, the Activity in test [5] is 8.4%. In addition, the outcome in test [6] was inactive.
As for `O=C(O)/C=C/c1ccc(O)c(O)c1` [CAFFEIC ACID], in test [4], the inhibition is 17.5%. Inhibition in test [7] was half-maximal at 600 µM (IC50). Further, the values for the Activity in test [5] and in test [6] were 6% and 5.5%, respectively.
In the case of `N[C@@H](Cc1ccc(O)c(O)c1)C(=O)O`, the inhibition result in the test with Glycine max [2] was “inactive”. For the same molecule, the results for the inhibition (in the test on Glycine max [3]; in test [4]) were 23% and 65%, respectively. Also, the Activity in test [5] and in test [6] was 76% each time.
On to `COc1ccc(/C=C/C(=O)NCCOCCOC(=O)/C=C/c2c(C)oc3c(C)c4oc(=O)cc(C)c4cc23)cc1OC`, for which the IC50 in test [1] is 12.9 µM; in test [7], 65 µM. The inhibition in test [4] turned out to be 98%. Further, in test [5], the Activity amounted to 15%. Also, in the test with Rattus norvegicus, the inhibition in vivo at 10 µmol/kg came out at 9%. Also, the result in test [6] was inactive.
`COc1cc(C)c(/C=C/C(C)=C/C=C/C(C)=C/C(=O)NCCCNCCCCNCCCNC(=O)/C=C/c2c(C)oc3c(C)c4oc(=O)cc(C)c4cc23)c(C)c1C`: the inhibition in test [4] turned out to be 31%. Also, it took 41.5 µM to reach half-maximal inhibition in test [7] (IC50). In addition, the result in test [5] and in test [6] was inactive.
Consider `COc1cc(C)c(/C=C/C(C)=C/C=C/C(C)=C/C(=O)O)c(C)c1C` [ACITRETIN], for which, in test [1], the IC50 is 14.6 µM. Also, in the test with Glycine max [2], the inhibition result was “inactive”. Further, the inhibition with Glycine max [3] turned out to be 1%; in test [4], 85%. Moreover, the outcome in test [5] and in test [6] was inactive. The inhibition in vivo at 10 µmol/kg in the test on Rattus norvegicus is 63%.
Take `O=C(O)/C=C/C(=O)n1cc(C(=O)Nc2ccccc2)c2ccccc21`: in test [4], the inhibition was 85%. This molecule yielded an IC50 in test [7] of 52.4 µM. In addition, the outcome in test [5] was inactive. Moreover, in the test with Rattus norvegicus, the inhibition in vivo at 10 µmol/kg came to 11%. Also, the Activity in test [6] is 1%.
As for `CC1=C(/C=C/C(C)=C/C=C/C(C)=C/C(=O)NCCCNCCCCNCCCNC(=O)/C=C(C)/C=C/C=C(C)/C=C/C2=C(C)CCCC2(C)C)C(C)(C)CCC1`, in test [1], the IC50 was determined as 2.6 µM. Further, the inhibition entry in the test on Glycine max [2] was “inactive”. The inhibition is 76% in the test with Glycine max [3] and 58% in test [4]. For the same molecule, in test [5], the Activity stood at 5%. Further, the inhibition in vivo at 10 µmol/kg in the test with Rattus norvegicus was determined as 40%. Besides, the result in test [6] was inactive.
For the molecule `COc1ccc(/C=C/C(=O)NCCOCCOC(=O)/C=C/C(=O)n2cc(C(=O)Nc3ccccc3)c3ccccc32)cc1OC`, the inhibition entry in test [4] was “inactive”. This molecule also returned an IC50 in test [7] of 33.5 µM. In addition, the Activity in test [5] came to 12%. In addition, the result in test [6] was inactive.
Turning to `COc1ccc(/C=C/C(=O)O)cc1OC`, the inhibition result in the test with Glycine max [2] was “inactive”. Also, the results for the inhibition (in the test with Glycine max [3]; in test [4]) were 23% and 56%, respectively. For the same molecule, the results for the Activity in test [5] and in test [6] were 10% and 9%, respectively.
Consider `COc1cc(C)c(/C=C/C(C)=C/C=C/C(C)=C/C(=O)NCc2ccccc2)c(C)c1C`, for which, in test [4], the inhibition stood at 45%. In test [7], this molecule registered an IC50 of 40.5 µM. Also, the Activity in test [5] was determined as 2%. In addition, in the test with Rattus norvegicus, the inhibition in vivo at 10 µmol/kg was determined as 3.6%. In test [6], the outcome was inactive.
Turning to `NCCc1ccc(O)c(O)c1` [DOPAMINE], the inhibition in test [4] amounted to 43%. For the same molecule, in test [7], the IC50 amounted to 100 µM. The Activity in test [5] and in test [6] was 86% throughout. The inhibition in vivo at 10 µmol/kg in the test with Rattus norvegicus was determined as 13%.
For `Cc1oc2c(C)c3oc(=O)cc(C)c3cc2c1/C=C/C(=O)NCCCNCCCCNCCCNC(=O)/C=C/c1c(C)oc2c(C)c3oc(=O)cc(C)c3cc12`, the inhibition result in the test on Glycine max [2] is “inactive”. Besides, the inhibition with Glycine max [3] stood at 57%; in test [4], 33%. For the same molecule, the Activity in test [5] was determined as 54%; in test [6] it was 41%.
